Experimental data from patent US20100009956A1, “NOVEL SUBSTITUTED PYRIMIDINES AS CYSTEINE PROTEASE INHIBITORS” (Glaxo Group Limited , a corporation, priority 2006, published 2010).
Counter-ions that a name gives are not always drawn. Like-named read-outs stand apart in the source and are kept apart here.

Tests used:
Assay type in all cases: biochemical
[1] = biological target: Falcipain-2 (Plasmodium falciparum, UniProt Q8I6U4); experiment: Falcipain-2 enzymatic assay (assay 1)
Protocol: (§1) Assay 1) Determination of Falcipain-2, Falcipain-3, Vivapain-2, Cathepsin K Cathepsin S, Cathepsin L, and Cathepsin B Proteolytic Catalytic Activity
(§2) Assays for Falcipain-2, Falcipain-3, and Vivapain-2 are carried out with parasitic recombinant enzymes. Cathepsins K, S, L, and B are carried out with human recombinant enzymes. Standard assay conditions for the determination of kinetic constants used a fluorogenic peptide substrate, typically H-D-VLR-AFC (Falcipain-2, Falcipain-3, Vivapain-2), Z-FR-AFC (Cathepsin K, L, B), or KQKLR-AMC (Cathepsin S) and are determined in 100 mM sodium acetate, pH 5.5, containing 10 mM DTT and 0.5 mM CHAPS (Falcipain-2, Falcipain-3, Vivapain-2), and 100 mM sodium acetate, pH 5.5, containing 5 mM L-cysteine, 1 mM CHAPS and 5 mM EDTA (Cathepsin K, L, B), or 50 mM MES, pH 6.5, containing 0.5 mM CHAPS, 10 mM L-CYS, 5 mM EDTA (Cathepsin S). Stock substrate solutions are prepared at 20 mM in DMSO. The activity assays contained 30 uM substrate (Falcipain-2, Falcipain-3, Vivapain-2), 20 uM substrate (Cathepsin K), 25 uM substrate (Cathepsin B), 5 uM substrate (Cathepsin L), and 30 uM substrate (Cathepsin S). All assays contained 1% DMSO. […] All assays are conducted at ambient temperature as end point assays being quenched after 60 minutes with the exception of Cathepsin S at 90 minutes, with 16.6 uM E-64 in 1% DMSO. Product formation (AFC or AMC) is determined from fluorescence (excitation at 405 nm; emission at 530 nm, AFC, or excitation at 360 nm; emission at 460 nm, AMC) monitored with a LJL Aquest (Molecular Devices) fluorescent plate reader. In the case of kinetic reads (used in mechanism of action studies), the reaction is not quenched but is read in the plate reader every 3 minutes for approximately 90 minutes. In addition, the mechanism of action studies for Falcipain-2 utilize Z-LR-AMC as the substrate. Product formation is determined from the fluorescence of AMC, measured with a LJL Acquest (Molecular Devices) fluorescent plate reader (excitation at 360 nm; emission at 460 nm).
(§3) Potential inhibitors are evaluated using the quenched read (endpoint) method. Assays are carried out in the presence of variable concentrations of test compound. Reactions are initiated by addition of enzyme and substrate to wells containing inhibitor stamped in 100% DMSO. For endpoint assays, the reaction is quenched with the addition of E64. Dose response data is fit to an IC50 curve with preset fitting tools according to equation 1:
(§4) y=a+(b−a)/(1+(10^x/10^c)^d) (1)
(§5) where y is the response at a particular inhibitor concentration x, a is the minimum response value, b is the maximum response value, c is the IC50, and d is the slope of the IC50 curve. Assuming the compound is a competitive inhibitor, the apparent KI can be calculated from IC50, as shown in equation 2: […]

[2] = biological target: Falcipain-3 (Plasmodium falciparum, UniProt Q8IIL0); experiment: Falcipain-3 enzymatic assay (assay 1)
Protocol: as §1, §2, §3, §4, §5

[3] = biological target: T1, Cathepsin K (Homo sapiens, UniProt P43235); experiment: Cathepsin K enzymatic assay (assay 1); conditions: human recombinant enzyme, Z-FR-AFC substrate, pH 5.5
T1 sequence (P43235 115-329): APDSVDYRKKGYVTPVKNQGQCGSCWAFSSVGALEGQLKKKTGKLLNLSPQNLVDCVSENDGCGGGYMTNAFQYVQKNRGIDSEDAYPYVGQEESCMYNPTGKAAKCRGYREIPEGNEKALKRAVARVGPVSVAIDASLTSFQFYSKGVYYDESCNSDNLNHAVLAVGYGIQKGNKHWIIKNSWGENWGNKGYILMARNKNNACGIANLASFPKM
Protocol: as §1, §2, §3, §4, §5

Falcipain-2, sequence (Q8I6U4 244-484): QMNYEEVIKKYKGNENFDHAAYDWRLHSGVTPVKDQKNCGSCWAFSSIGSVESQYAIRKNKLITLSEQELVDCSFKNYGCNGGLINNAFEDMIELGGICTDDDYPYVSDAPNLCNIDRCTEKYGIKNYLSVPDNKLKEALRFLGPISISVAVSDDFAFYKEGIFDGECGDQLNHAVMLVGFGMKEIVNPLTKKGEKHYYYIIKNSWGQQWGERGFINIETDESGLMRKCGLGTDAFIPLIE
Falcipain-3, sequence (Q8IIL0 243-492): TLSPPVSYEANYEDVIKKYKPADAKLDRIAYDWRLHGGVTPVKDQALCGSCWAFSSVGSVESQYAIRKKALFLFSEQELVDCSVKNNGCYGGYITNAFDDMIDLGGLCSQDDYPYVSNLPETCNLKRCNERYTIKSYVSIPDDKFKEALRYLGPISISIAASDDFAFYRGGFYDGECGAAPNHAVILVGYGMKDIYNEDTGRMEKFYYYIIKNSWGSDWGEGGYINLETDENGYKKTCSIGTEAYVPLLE

SMILES | IC50 [1] [nM] | IC50 [2] [nM] | IC50 [3] [nM] | IC50 ([2]; parasitic recombinant enzyme, H-D-VLR-AFC substrate, pH 5.5, endpoint read, read-out: Falcipain-3 IC50) [nM]
CN1CCN(C2CCN(Cc3ccc(C(=O)NN(c4nc(C#N)ncc4Br)C4CCCC4)cc3)CC2)CC1 [Example 10, N′-(5-bromo-2-cyano-4-pyrimidinyl)-N′-cyclopentyl-4-{[4-(4-methyl-1-piperazinyl)-1-piperidinyl]methyl}benzohydrazide trifluoroacetate] | < 1 | 2.5 to 15 | < 1.5 | 
CN1CCN(C2CCN(Cc3cccc(C(=O)NN(c4nc(C#N)ncc4Br)C4CCCC4)c3)CC2)CC1 [Example 11, N′-(5-bromo-2-cyano-4-pyrimidinyl)-N′-cyclopentyl-3-{[4-(4-methyl-1-piperazinyl)-1-piperidinyl]methyl}benzohydrazide trifluoroacetate] | < 1 | 2.5 to 15 | < 1.5 | 
CN1CCN(C(=O)C2CCN(Cc3cccc(C(=O)NN(c4nc(C#N)ncc4Br)C4CCCC4)c3)CC2)CC1 [Example 12, N′-(5-bromo-2-cyano-4-pyrimidinyl)-N′-cyclopentyl-3-({4-[(4-methyl-1-piperazinyl)carbonyl]-1-piperidinyl}methyl)benzohydrazide trifluoroacetate] | < 1 | 2.5 to 15 | < 1.5 | 
CN1CCCC(CN2CCN(Cc3cccc(C(=O)NN(c4nc(C#N)ncc4Br)C4CCCC4)c3)CC2)C1 (stereo not drawn) [Example 14, N′-(5-bromo-2-cyano-4-pyrimidinyl)-N′-cyclopentyl-3-({4-[(1-methyl-3-piperidinyl)methyl]-1-piperazinyl}methyl)benzohydrazide trifluoroacetate] | < 1 | 2.5 to 15 | < 1.5 | 
CN1CCC(CN2CCN(Cc3cccc(C(=O)NN(c4nc(C#N)ncc4Br)C4CCCC4)c3)CC2)CC1 [Example 15, N′-(5-bromo-2-cyano-4-pyrimidinyl)-N′-cyclopentyl-3-({4-[(1-methyl-4-piperidinyl)methyl]-1-piperazinyl}methyl)benzohydrazide trifluoroacetate] | < 1 |  | < 1.5 | 2.5 to 15
N#Cc1ncc(Br)c(N(NC(=O)c2ccc(CN3CCC(N4CCOCC4)CC3)cc2)C2CCCCC2)n1 [Example 18, N′-(5-bromo-2-cyano-4-pyrimidinyl)-N′-cyclohexyl-4-{([4-(4-morpholinyl)-1-piperidinyl]methyl}benzohydrazide trifluoroacetate] | < 1 | 2.5 to 15 | < 1.5 | 
CN1CCC(CN2CCN(Cc3ccc(C(=O)NN(c4nc(C#N)ncc4Br)C4CCCCC4)cc3)CC2)CC1 [Example 19, N′-(5-bromo-2-cyano-4-pyrimidinyl)-N′-cyclohexyl-4-({4-[(-methyl-4-piperidinyl)methyl]-1-piperazinyl}methyl)benzohydrazide trifluoroacetate] | < 1 | 2.5 to 15 | < 1.5 | 
CN1CCN(C2CCN(Cc3cccc(C(=O)NN(c4nc(C#N)ncc4Br)C4CCCCC4)c3)CC2)CC1 [Example 20, N′-(5-bromo-2-cyano-4-pyrimidinyl)-N′-cyclohexyl-3-{([4-(4-methyl-1-piperazinyl)-1-piperidinyl]methyl}benzohydrazide trifluoroacetate] | < 1 | 15 to 150 | < 1.5 | 
N#Cc1ncc(Br)c(N(NC(=O)c2ccc(CN3CCC(O)CC3)cc2)C2CCCCC2)n1 [Example 21, N′-(5-bromo-2-cyano-4-pyrimidinyl)-N′-cyclohexyl-4-[(4-hydroxy-1-piperidinyl)methyl]benzohydrazide trifluoroacetate] | < 1 | 2.5 to 15 | < 1.5 | 
CN1CCN(C(=O)C2CCN(Cc3ccc(C(=O)NN(c4nc(C#N)ncc4Br)C4CCCCC4)cc3)CC2)CC1 [Example 22, N′-(5-bromo-2-cyano-4-pyrimidinyl)-N′-cyclohexyl-4-({4-[(4-methyl-1-piperazinyl)carbonyl]-1-piperidinyl}methyl)benzohydrazide trifluoroacetate] | < 1 | 2.5 to 15 | < 1.5 | 
CN1CCN(C(=O)C2CCN(Cc3cccc(C(=O)NN(c4nc(C#N)ncc4Br)C4CCCCC4)c3)CC2)CC1 [Example 23, N′-(5-bromo-2-cyano-4-pyrimidinyl)-N′-cyclohexyl-3-({4-[(4-methyl-1-piperazinyl)carbonyl]-1-piperidinyl}methyl)benzohydrazide trifluoroacetate] | < 1 | 2.5 to 15 | < 1.5 | 
N#Cc1ncc(Br)c(N(NC(=O)c2cccc(CN3CCC(N4CCOCC4)CC3)c2)C2CCCCC2)n1 [Example 24, N′-(5-bromo-2-cyano-4-pyrimidinyl)-N′-cyclohexyl-3-{[4-(4-morpholinyl)-1-piperidinyl]methyl}benzohydrazide trifluoroacetate] | < 1 | 2.5 to 15 | < 1.5 | 
CN1CCCC(CN2CCN(Cc3ccc(C(=O)NN(c4nc(C#N)ncc4Br)C4CCCCC4)cc3)CC2)C1 (stereo not drawn) [Example 25, N′-(5-bromo-2-cyano-4-pyrimidinyl)-N′-cyclohexyl-4-({4-[(-methyl-3-piperidinyl)methyl]-1-piperazinyl}methyl)benzohydrazide trifluoroacetate] | < 1 | 2.5 to 15 | < 1.5 | 
CN1CCC(CN2CCN(Cc3ccc(C(=O)NN(c4nc(C#N)ncc4Br)C4CCOCC4)cc3)CC2)CC1 [Example 30, N′-(5—Bromo-2-cyano-4-pyrimidinyl)-4-({4-[(1-methyl-4-piperidinyl)methyl]-1-piperazinyl}methyl)-N′-(tetrahydro-2H-pyran-4-yl)benzohydrazide trifluoroacetate] | 1 to 2.5 | 2.5 to 15 | < 17 | 
CN1CCCC(CN2CCN(Cc3ccc(C(=O)NN(c4nc(C#N)ncc4Br)C4CCOCC4)cc3)CC2)C1 (stereo not drawn) [Example 31, N′-(5—Bromo-2-cyano-4-pyrimidinyl)-4-({4-[(1-methyl-3-piperidinyl)methyl]-1-piperazinyl}methyl)-N′-(tetrahydro-2H-pyran-4-yl)benzohydrazide trifluoroacetate] | < 1 | 15 to 150 | < 17 | 
CN1CCN(C(=O)C2CCN(Cc3ccc(C(=O)NN(c4nc(C#N)ncc4Br)C4CCOCC4)cc3)CC2)CC1 [Example 32, N′-(5—Bromo-2-cyano-4-pyrimidinyl)-4-({4-[(4-methyl-1-piperazinyl)carbonyl]-1-piperidinyl}methyl)-N′-(tetrahydro-2H-pyran-4-yl)benzohydrazide trifluoroacetate] | < 1 | 2.5 to 15 | < 17 | 
N#Cc1ncc(Br)c(N(NC(=O)c2ccc(CN3CC(N4CCCC4)C3)cc2)C2CCOCC2)n1 [Example 33, N′-(5-bromo-2-cyano-4-pyrimidinyl)-4-{[3-(1-pyrrolidinyl)-1-azetidinyl]methyl}-N′-(tetrahydro-2H-pyran-4-yl)benzohydrazide trifluoroacetate] | < 1 | 15 to 150 | < 17 | 
CN1CCC(CN2CCN(Cc3ccc(C(=O)NN(c4nc(C#N)ncc4Cl)C4CCOCC4)cc3)CC2)CC1 [Example 35, N′-(5-Chloro-2-cyano-4-pyrimidinyl)-4-({4-[(1-methyl-4-piperidinyl)methyl]-1-piperazinyl}methyl)-N′-(tetrahydro-2H-pyran-4-yl)benzohydrazide trifluoroacetate] | 1 to 2.5 | 15 to 150 | < 17 | 
